Laboratory results taken from ChEMBL document CHEMBL1138716, “Carbonic anhydrase inhibitors. Inhibition of the prokariotic beta and gamma-class enzymes from Archaea with sulfonamides” (Bioorg Med Chem Lett, 2004).

How the values were obtained:
Carbonic anhydrase [1] = biological target: T1, Carbonic anhydrase (Methanobacterium thermoautotrophicum, UniProt Q50565)
T1 sequence (Q50565 whole entry): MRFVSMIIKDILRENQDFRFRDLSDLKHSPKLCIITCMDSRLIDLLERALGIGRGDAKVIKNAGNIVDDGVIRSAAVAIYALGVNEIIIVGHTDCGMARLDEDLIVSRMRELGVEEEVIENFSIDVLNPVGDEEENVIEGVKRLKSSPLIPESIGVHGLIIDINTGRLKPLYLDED

Carbonic anhydrase [2] = biological target: T2, Carbonic anhydrase (Methanosarcina thermophila, UniProt P40881)
T2 sequence (P40881 whole entry): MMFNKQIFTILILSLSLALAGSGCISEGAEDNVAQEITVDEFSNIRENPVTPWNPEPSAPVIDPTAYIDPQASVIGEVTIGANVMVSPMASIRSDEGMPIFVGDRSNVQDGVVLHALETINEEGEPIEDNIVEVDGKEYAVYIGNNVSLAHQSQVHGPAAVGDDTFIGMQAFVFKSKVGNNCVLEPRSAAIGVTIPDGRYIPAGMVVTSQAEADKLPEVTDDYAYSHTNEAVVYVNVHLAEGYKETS

Carbonic anhydrase [3] = biological target: T2, Carbonic anhydrase; remark: listed apart in the source

| Ki (Carbonic anhydrase [1]) | Ki (Carbonic anhydrase [2]) | Ki (Carbonic anhydrase [3]) | SMILES |
| --- | --- | --- | --- |
| 77 µM | 1720 nM | 280 nM | Nc1ccc(S(N)(=O)=O)cc1Br |
| 28.5 µM | 350 nM | 8500 nM | NCc1ccc(S(N)(=O)=O)cc1 [MAFENIDE] |
| 52.4 µM | 180 nM | 6360 nM | Nc1ccc(S(=O)(=O)NCc2ccc(S(N)(=O)=O)cc2)cc1 |
| – | – | 740 nM | CCOc1ccc2nc(S(N)(=O)=O)sc2c1 [ETHOXZOLAMIDE] |
| 103000 µM | 90 nM | 3360 nM | NS(=O)(=O)O [SULFAMATE] |
| 23.5 µM | – | 120 nM | CC1(C)O[C@@H]2[C@@H](CO[C@@]3(COS(N)(=O)=O)OC(C)(C)O[C@@H]23)O1 [TOPIRAMATE] |
| 127 µM | 2200 nM | 220 nM | NNc1ccc(S(N)(=O)=O)cc1 |
| 53.4 µM | 970 nM | 420 nM | Nc1ccc(S(N)(=O)=O)cc1F |
| 14.3 µM | 170 nM | 1240 nM | Nc1cccc(S(N)(=O)=O)c1 |
| 57.8 µM | 250 nM | 3930 nM | Nc1ccc(S(N)(=O)=O)cc1 [SULFANILAMIDE] |
| – | 140 nM | 740 nM | Nc1ccc(S(N)(=O)=O)cc1Cl |
| 98 µM | 280 nM | 660 nM | Nc1ccc(S(N)(=O)=O)cc1I |
| 50 µM | – | – | Nc1cc(C(F)(F)F)c(S(N)(=O)=O)cc1S(N)(=O)=O [2,4-DISULFAMYLTRIFLUOROMETHYLANILINE] |
| 38.5 µM | 140 nM | 1010 nM | Cc1ccc(-c2cc(C(F)(F)F)nn2-c2ccc(S(N)(=O)=O)cc2)cc1 [CELECOXIB] |

| SMILES | Ki (Carbonic anhydrase [1]) | Ki (Carbonic anhydrase [2]) | Ki (Carbonic anhydrase [3]) |
| --- | --- | --- | --- |
| NCCc1ccc(S(N)(=O)=O)cc1 | 25.7 µM | – | – |
| NS(N)(=O)=O [SULFAMIDE] | 440000 µM | – | 5960 nM |
